From patent US11524968B2, “Heterocyclic compound as a protein kinase inhibitor” (HK inno.N Corporation, priority 2017, dated 2022)

Biological target: JAK1 (Homo sapiens (Human), UniProt P23458)
Assay: Analysis of JAK1 activity inhibition ability (ADP-Glo Kinase Assay)
Assay type: biochemical
Settings: JAK1 enzyme, ADP-Glo luminescence, ATP 250 uM, IRS-itide substrate, 30° C. 40 minutes; read-out: IC50
Procedure, shortened: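 ADP-Glo luminescence read-out of ADP production, with IC50 taken as the concentration halving JAK1 activity relative to control. Enzyme was incubated 40 min at 30 °C with compound, IRS-itide (40 ng/mL) and ATP (250 uM), concentrations as prepared in pH 7.5 Tris-HCl/MgCl2/BSA/DTT buffer.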

Sequence of JAK1 (P23458 whole entry): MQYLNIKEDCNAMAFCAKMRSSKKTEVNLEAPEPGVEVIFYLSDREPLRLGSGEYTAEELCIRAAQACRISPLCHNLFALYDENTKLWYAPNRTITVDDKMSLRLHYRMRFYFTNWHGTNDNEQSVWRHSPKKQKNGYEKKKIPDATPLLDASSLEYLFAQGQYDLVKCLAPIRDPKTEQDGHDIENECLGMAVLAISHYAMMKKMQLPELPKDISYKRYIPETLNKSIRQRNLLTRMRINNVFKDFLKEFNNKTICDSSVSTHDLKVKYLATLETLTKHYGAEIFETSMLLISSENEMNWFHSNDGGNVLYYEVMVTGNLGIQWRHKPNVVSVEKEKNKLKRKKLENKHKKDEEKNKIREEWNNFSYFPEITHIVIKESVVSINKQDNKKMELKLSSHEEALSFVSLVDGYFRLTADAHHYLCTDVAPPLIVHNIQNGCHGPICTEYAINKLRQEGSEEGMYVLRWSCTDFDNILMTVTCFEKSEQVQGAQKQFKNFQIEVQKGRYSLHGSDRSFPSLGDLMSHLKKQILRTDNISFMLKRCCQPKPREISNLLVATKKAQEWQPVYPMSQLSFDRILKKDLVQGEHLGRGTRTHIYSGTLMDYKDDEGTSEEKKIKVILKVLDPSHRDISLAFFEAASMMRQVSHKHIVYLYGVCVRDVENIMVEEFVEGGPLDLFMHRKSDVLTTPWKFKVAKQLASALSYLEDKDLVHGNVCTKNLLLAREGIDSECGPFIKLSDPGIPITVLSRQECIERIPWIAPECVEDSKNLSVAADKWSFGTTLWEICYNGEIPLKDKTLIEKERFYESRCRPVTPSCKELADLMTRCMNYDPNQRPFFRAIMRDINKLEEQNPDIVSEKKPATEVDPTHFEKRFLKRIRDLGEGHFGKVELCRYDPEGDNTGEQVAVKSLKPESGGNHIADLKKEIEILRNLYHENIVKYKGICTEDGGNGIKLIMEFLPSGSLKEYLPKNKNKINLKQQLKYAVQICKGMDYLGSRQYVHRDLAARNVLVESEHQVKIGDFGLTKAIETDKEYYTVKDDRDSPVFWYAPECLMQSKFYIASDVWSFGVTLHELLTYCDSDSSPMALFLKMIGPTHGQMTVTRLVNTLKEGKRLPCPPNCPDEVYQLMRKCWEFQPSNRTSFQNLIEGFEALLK

Row | SMILES | IC50 [nM]
1 | O=C(Nc1cc(C2CC3CCC(C2)N3S(=O)(=O)CCCF)c2cc[nH]c2n1)C1CC1 (stereo not drawn) [Example 648, N-(4-(8-((3-fluoropropyl)sulfonyl)-8-azabicyclo[3.2.1]octan-3-yl)-1H-pyrrolo[2,3-b]pyridin-6-yl)cyclopropanecarboxamide] | > 200
2 | O=C(Nc1cc(C2CC3CCC(C2)N3S(=O)(=O)c2ccc(F)c(F)c2)c2cc[nH]c2n1)C1CC1 (stereo not drawn) [Example 649, N-(4-(8-((3,4-difluorophenyl)sulfonyl)-8-azabicyclo[3.2.1]octan-3-yl)-1H-pyrrolo[2,3-b]pyridin-6-yl)cyclopropanecarboxamide] | > 200
3 | O=C(Nc1cc(C2CC3CCC(C2)N3C(=O)C2CC2)c2cc[nH]c2n1)C1CC1 (stereo not drawn) [Example 650, N-(4-(8-(cyclopropanecarbonyl)-8-azabicyclo[3.2.1]octan-3-yl)-1H-pyrrolo[2,3-b]pyridin-6-yl)cyclopropanecarboxamide] | > 200
4 | CCCCC(=O)N1C2CCC1CC(c1cc(NC(=O)C3CC3)nc3[nH]ccc13)C2 (stereo not drawn) [Example 651, N-(4-(8-pentanoyl-8-azabicyclo[3.2.1]octan-3-yl)-1H-pyrrolo[2,3-b]pyridin-6-yl)cyclopropanecarboxamide] | > 200
5 | N#CCC(=O)N1CCC(c2cc(NC(=O)C3CC3)nc3[nH]ccc23)CC1 [Example 652, N-(4-(1-(2-cyanoacetyl)piperidin-4-yl)-1H-pyrrolo[2,3-b]pyridin-6-yl)cyclopropanecarboxamide] | 20 to 200
6 | CC(C)(C)OC(=O)N1CCC(c2cc(NC(=O)C3CC3)nc3[nH]ccc23)C(O)C1 (stereo not drawn) [Example 655, tert-butyl 4-(6-(cyclopropanecarboxamido)-1H-pyrrolo[2,3-b]pyridin-4-yl)-3-hydroxypiperidine-1-carboxylate] | > 200
7 | CCNC(=S)N1C2CCC1CC(c1cc(NC(=O)C3CC3)nc3[nH]ccc13)C2 (stereo not drawn) [Example 657, N-(4-(8-(ethylcarbamothioyl)-8-azabicyclo[3.2.1]octan-3-yl)-1H-pyrrolo[2,3-b]pyridin-6-yl)cyclopropanecarboxamide] | 20 to 200
8 | CCCCNC(=S)N1CCC(c2cc(NC(=O)C3CC3)nc3[nH]ccc23)CC1 [Example 659, N-(4-(1-(butylcarbamothioyl)piperidin-4-yl)-1H-pyrrolo[2,3-b]pyridin-6-yl)cyclopropanecarboxamide] | > 200
9 | N#CCCCS(=O)(=O)N1C2CCC1CN(c1cc(NC(=O)C3CC3)nc3[nH]ccc13)C2 [Example 664, N-(4-(8-((3-cyanopropyl)sulfonyl)-3,8-diazabicyclo[3.2.1]octan-3-yl)-1H-pyrrolo[2,3-b]pyridin-6-yl)cyclopropanecarboxamide] | 20 to 200
10 | N#CCC1(CS(=O)(=O)N2C3CCC2CN(c2cc(NC(=O)C4CC4)nc4[nH]ccc24)C3)CC1 [Example 665, N-(4-(8-(((1-(cyanomethyl)cyclopropyl)methyl)sulfonyl)-3,8-diazabicyclo[3.2.1]octan-3-yl)-1H-pyrrolo[2,3-b]pyridin-6-yl)cyclopropanecarboxamide] | 20 to 200
11 | O=C(Nc1cc(N2CC3CCC(C2)N3S(=O)(=O)CCCC(F)(F)F)c2cc[nH]c2n1)C1CC1 [Example 666, N-(4-(8-((4,4,4-trifluorobutyl)sulfonyl)-3,8-diazabicyclo[3.2.1]octan-3-yl)-1H-pyrrolo[2,3-b]pyridin-6-yl)cyclopropanecarboxamide] | > 200
12 | N#CC1(CS(=O)(=O)N2C3CCC2CN(c2cc(NC(=O)C4CC4)nc4[nH]ccc24)C3)CC1 [Example 667, N-(4-(8-(((1-cyanocyclopropyl)methyl)sulfonyl)-3,8-diazabicyclo[3.2.1]octan-3-yl)-1H-pyrrolo[2,3-b]pyridin-6-yl)cyclopropanecarboxamide] | < 20
13 | CCS(=O)(=O)N1C2CCC1CN(c1nc(NC(=O)C3CC3)nc3[nH]ccc13)C2 [Example 669, N-(4-(8-(ethylsulfonyl)-3,8-diazabicyclo[3.2.1]octan-3-yl)-7H-pyrrolo[2,3-d]pyrimidin-2-yl)cyclopropanecarboxamide] | 20 to 200
14 | N#CCC(=O)N1C2CCC1CN(c1cc(NC(=O)C3CC3)nc3[nH]ccc13)C2 [Example 677, N-(4-(8-(2-cyanoacetyl)-3,8-diazabicyclo[3.2.1]octan-3-yl)-1H-pyrrolo[2,3-b]pyridin-6-yl)cyclopropanecarboxamide] | < 20
15 | N#CCC(=O)N1CC2CCC(C1)N2c1cc(NC(=O)C2CC2)nc2[nH]ccc12 [Example 678, N-(4-(3-(2-cyanoacetyl)-3,8-diazabicyclo[3.2.1]octan-8-yl)-1H-pyrrolo[2,3-b]pyridin-6-yl)cyclopropanecarboxamide] | 20 to 200

Now from value to molecule:

Row | IC50 [nM] | SMILES
16 | > 200 | CCCCNC(=O)N1CCC(c2cc(NC(=O)C3CC3)nc3[nH]ccc23)CC1 [Example 653, N-butyl-4-(6-(cyclopropanecarboxamido)-1H-pyrrolo[2,3-b]pyridin-4-yl)piperidine-1-carboxamide]
17 | > 200 | O=C(Nc1cc(C2CCN(C(=O)NCC(F)(F)F)CC2)c2cc[nH]c2n1)C1CC1 [Example 654, 4-(6-(cyclopropanecarboxamido)-1H-pyrrolo[2,3-b]pyridin-4-yl)-N-(2,2,2-trifluoroethyl)piperidine-1-carboxamide]
18 | > 200 | CC(C)(C)OC(=O)N1CCC(c2cc(NC(=O)C3CC3)nc3[nH]ccc23)C(F)C1 (stereo not drawn) [Example 656, tert-butyl 4-(6-(cyclopropanecarboxamido)-1H-pyrrolo[2,3-b]pyridin-4-yl)-3-fluoropiperidine-1-carboxylate]
19 | > 200 | CCNC(=S)N1CCC(c2cc(NC(=O)C3CC3)nc3[nH]ccc23)CC1 [Example 658, N-(4-(1-(ethylcarbamothioyl)piperidin-4-yl)-1H-pyrrolo[2,3-b]pyridin-6-yl)cyclopropanecarboxamide]
20 | > 200 | CS(=O)(=O)N1CCN(c2cc(NC(=O)C3CC3)nc3[nH]ccc23)CC1 [Example 660, N-(4-(4-(methylsulfonyl)piperazin-1-yl)-1H-pyrrolo[2,3-b]pyridin-6-yl)cyclopropanecarboxamide]
21 | > 200 | N#CC1(CS(=O)(=O)N2CCN(c3cc(NC(=O)C4CC4)nc4[nH]ccc34)CC2)CC1 [Example 662, N-(4-(4-(((1-cyanocyclopropyl)methyl)sulfonyl)piperazin-1-yl)-1H-pyrrolo[2,3-b]pyridin-6-yl)cyclopropanecarboxamide]
22 | > 200 | O=C(Nc1cc(N2CCN(S(=O)(=O)CCCF)CC2)c2cc[nH]c2n1)C1CC1 [Example 663, N-(4-(4-((3-fluoropropyl)sulfonyl)piperazin-1-yl)-1H-pyrrolo[2,3-b]pyridin-6-yl)cyclopropanecarboxamide]
23 | > 200 | CCCS(=O)(=O)N1CCN(c2nc(NC(=O)C3CC3)nc3[nH]ccc23)CC1 [Example 668, N-(4-(4-(propylsulfonyl)piperazin-1-yl)-7H-pyrrolo[2,3-d]pyrimidin-2-yl)cyclopropanecarboxamide]
24 | > 200 | CCCS(=O)(=O)N[C@H]1CCN(c2nc(NC(=O)C3CC3)nc3[nH]ccc23)C1 [Example 670, (S)—N-(4-(3-(propylsulfonamido)pyrrolidin-1-yl)-7H-pyrrolo[2,3-d]pyrimidin-2-yl)cyclopropanecarboxamide]
25 | > 200 | C=CCS(=O)(=O)N[C@H]1CCN(c2nc(NC(=O)C3CC3)nc3[nH]ccc23)C1 [Example 671, (S)—N-(4-(3-(allylsulfonamido)pyrrolidin-1-yl)-7H-pyrrolo[2,3-d]pyrimidin-2-yl)cyclopropanecarboxamide]
26 | > 200 | CCS(=O)(=O)N(C)[C@H]1CCN(c2cc(NC(=O)C3CC3)nc3[nH]ccc23)C1 [Example 672, (S)—N-(4-(3-(N-methylethylsulfonamido)pyrrolidin-1-yl)-1H-pyrrolo[2,3-b]pyridin-6-yl)cyclopropanecarboxamide]
27 | > 200 | O=C(Nc1cc(N2CCN(S(=O)(=O)N3CCOCC3)CC2)c2cc[nH]c2n1)C1CC1 [Example 673, N-(4-(4-(morpholinosulfonyl)piperazin-1-yl)-1H-pyrrolo[2,3-b]pyridin-6-yl)cyclopropanecarboxamide]
28 | > 200 | CN(C)S(=O)(=O)N1CCN(c2cc(NC(=O)C3CC3)nc3[nH]ccc23)CC1 [Example 674, N-(4-(4-(N,N-dimethylsulfamoyl)piperazin-1-yl)-1H-pyrrolo[2,3-b]pyridin-6-yl)cyclopropanecarboxamide]
29 | > 200 | N#CCC(=O)NC1CCN(c2cc(NC(=O)C3CC3)nc3[nH]ccc23)CC1 [Example 675, N-(4-(4-(2-cyanoacetamido)piperidin-1-yl)-1H-pyrrolo[2,3-b]pyridin-6-yl)cyclopropanecarboxamide]
30 | > 200 | N#CCC(=O)N1CCN(c2cc(NC(=O)C3CC3)nc3[nH]ccc23)CC1 [Example 676, N-(4-(4-(2-cyanoacetyl)piperazin-1-yl)-1H-pyrrolo[2,3-b]pyridin-6-yl)cyclopropanecarboxamide]
31 | > 200 | N#CCC(=O)N1C[C@@H]2C[C@H]1CN2c1cc(NC(=O)C2CC2)nc2[nH]ccc12 [Example 679, N-(4-((1S,4S)-5-(2-cyanoacetyl)-2,5-diazabicyclo[2.2.1]heptan-2-yl)-1H-pyrrolo[2,3-b]pyridin-6-yl)cyclopropanecarboxamide]
32 | > 200 | N#CCCC(=O)N1C[C@@H]2C[C@H]1CN2c1cc(NC(=O)C2CC2)nc2[nH]ccc12 [Example 680, N-(4-((1S,4S)-5-(3-cyanopropanoyl)-2,5-diazabicyclo[2.2.1]heptan-2-yl)-1H-pyrrolo[2,3-b]pyridin-6-yl)cyclopropanecarboxamide]
33 | > 200 | N#CCC(=O)N1C[C@H]2C[C@@H]1CN2c1cc(NC(=O)C2CC2)nc2[nH]ccc12 [Example 681, N-(4-((1R,4R)-5-(2-cyanoacetyl)-2,5-diazabicyclo[2.2.1]heptan-2-yl)-1H-pyrrolo[2,3-b]pyridin-6-yl)cyclopropanecarboxamide]
